From publication PMC12304045 (2025)
One block for each compound: values may come before it.

Legend:
[1] = system: OTC-APT5 (DNA, aptamer) ACGACATTCCGTTGATCTCTCCCTTTTGGGTTGGTGTCGT; test: circular dichroism; details: 100 mM NaCl, 5 mM KCl, 2 mM MgCl2, 2 mM CaCl2; 20 mM tris, 0.05% Tween 20, 25 °C; 2 μM aptamer
[2] = system: OTC-APT5 (DNA, aptamer) ACGACATTCCGTTGATCTCTCCCTTTTGGGTTGGTGTCGT; test: fluorescence titration; details: 100 mM NaCl, 5 mM KCl, 2 mM MgCl2, 2 mM CaCl2; 20 mM tris, 0.05% Tween 20; 200 nM OTC titrated with aptamer; unit likely misprint for nM
[3] = system: OTC-APT5 (DNA, aptamer) ACGACATTCCGTTGATCTCTCCCTTTTGGGTTGGTGTCGT; test: fluorescence polarization titration; details: 100 mM NaCl, 5 mM KCl, 2 mM MgCl2, 2 mM CaCl2; 20 mM tris, 0.05% Tween 20; 200 nM OTC titrated with aptamer
[4] = system: OTC-APT5, amine-terminated (DNA, aptamer) ACGACATTCCGTTGATCTCTCCCTTTTGGGTTGGTGTCGT; test: DPV aptasensor, [Fe(CN)6]3-/4- probe; details: 2 mM MgCl2, 10 mM phosphate buffer pH 7.4
[5] = highest tested 250 ng/mL, signal change <10% of OTC

binding [1]: yes
Kd [2]: 106 nM
Kd [3]: 62 nM
binding ([4]; 50 ng/mL OTC): yes
SMILES: CN(C)[C@@H]1C(=O)C(C(N)=O)=C(O)[C@@]2(O)C(=O)C3=C(O)c4c(O)cccc4[C@@](C)(O)[C@H]3[C@H](O)[C@@H]12

binding [4, 5]: no
SMILES: CN[C@@H]1[C@H](O[C@H]2[C@H](O[C@H]3[C@H](O)[C@@H](O)[C@H](N=C(N)N)[C@@H](O)[C@@H]3N=C(N)N)O[C@@H](C)[C@]2(O)C=O)O[C@@H](CO)[C@H](O)[C@H]1O

binding ([4]; tested at fivefold excess over OTC, signal change <10% of OTC): no
SMILES: CC1(C)S[C@@H]2[C@H](NC(=O)[C@H](N)c3ccccc3)C(=O)N2[C@H]1C(=O)O

binding [4, 5]: no
SMILES: CC1(C)S[C@@H]2[C@H](NC(=O)Cc3ccccc3)C(=O)N2[C@H]1C(=O)O

binding [4, 5]: no
SMILES: NC[C@H]1O[C@H](O[C@H]2[C@H](O)[C@@H](O[C@H]3O[C@H](CO)[C@@H](O)[C@H](N)[C@H]3O)[C@H](N)C[C@@H]2N)[C@H](O)[C@@H](O)[C@@H]1O

binding ([4]; 50 ng/mL, signal similar to OTC): yes
SMILES: CN(C)[C@@H]1C(=O)C(C(N)=O)=C(O)[C@@]2(O)C(=O)C3=C(O)c4c(O)cccc4[C@@](C)(O)[C@H]3C[C@@H]12
